In patent publication US9796742B2, “Kinase inhibitors” (Respivert Limited, priority 2012, dated 2017):

What was measured:
[1] = tested on: PBMCs; assay: LPS-induced TNFα/IL-8 release in PBMC cells; format: cell-based; details: Homo sapiens, LPS-stimulated PBMCs, IL-8, read-out: IC50 Values for Inhibition of Cytokine Release, PBMCs IL-8
Experimental: Peripheral blood mononuclear cells (PBMCs) from healthy subjects are separated from whole blood using a density gradient (Lymphoprep, Axis-Shield Healthcare). The PBMCs are seeded in 96 well plates and treated with compounds at the desired concentration for 2 hours before addition of 1 ng/mL LPS (Escherichia Coli 0111:B4 from Sigma Aldrich) for 24 hours under normal tissue culture conditions (37° C., 5% CO2). The supernatant is harvested for determination of IL-8 and TNFα concentrations by sandwich ELISA (Duo-set, R&D systems) and read on the fluorescence microplate reader (Varioskan® Flash, ThermoFisher Scientific). The concentration at 50% inhibition (IC50) of IL-8 and TNFα production is calculated from the dose response curve.

[2] = target: GSK3α (Homo sapiens (Human), UniProt P49840); assay: GSK 3α enzyme inhibition (FRET, Z-LYTE; Method 2); format: biochemical
GSK3α, sequence (P49840 whole entry): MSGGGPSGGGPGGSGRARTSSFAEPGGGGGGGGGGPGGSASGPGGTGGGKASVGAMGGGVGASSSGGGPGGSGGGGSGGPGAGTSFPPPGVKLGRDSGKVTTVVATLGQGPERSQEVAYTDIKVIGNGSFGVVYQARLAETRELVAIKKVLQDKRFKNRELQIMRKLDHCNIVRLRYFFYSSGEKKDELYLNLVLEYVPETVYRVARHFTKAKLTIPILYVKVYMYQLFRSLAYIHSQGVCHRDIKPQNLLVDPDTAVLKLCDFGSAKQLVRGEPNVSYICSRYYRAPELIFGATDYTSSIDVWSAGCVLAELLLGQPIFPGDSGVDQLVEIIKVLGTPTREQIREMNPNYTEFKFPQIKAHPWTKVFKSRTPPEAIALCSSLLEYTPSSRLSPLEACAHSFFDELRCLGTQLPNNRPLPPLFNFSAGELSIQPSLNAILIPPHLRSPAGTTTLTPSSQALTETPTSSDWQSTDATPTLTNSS
Experimental: (§1) The enzyme inhibitory activities of compounds disclosed herein are determined by FRET using synthetic peptides labelled with both donor and acceptor fluorophores (Z-LYTE, Invitrogen Ltd., Paisley, UK).
The inhibitory activities of compounds of the invention against the GSK 3α enzyme isoform (Invitrogen), are evaluated by determining the level of activation/phosphorylation of the target peptide. The GSK3-α protein (500 ng/mL, 2.5 μL) is mixed with the test compound (2.5 μL at either 4 μg/mL, 0.4 μg/mL, 0.04 μg/mL, or 0.004 μg/mL) for 2 hr at RT. The FRET peptide (8 μM, 2.5 μL), which is a phosphorylation target for GSK3α, and ATP (40 μM, 2.5 μL) are then added to the enzyme/compound mixture and the resulting mixture incubated for 1 hr. Development reagent (protease, 5 μL) is added for 1 hr prior to detection in a fluorescence microplate reader (Varioskan® Flash, ThermoFisher Scientific).
(§2) In all cases, the site-specific protease cleaves non-phosphorylated peptide only and eliminates the FRET signal. Phosphorylation levels of each reaction are calculated using the ratio of coumarin emission (donor) over fluorescein emission (acceptor), for which high ratios indicate high phosphorylation and low ratios indicate low phosphorylation levels. The percentage inhibition of each reaction is calculated relative to non-inhibited control and the 50% inhibitory concentration (IC50 value) is then calculated from the concentration-response curve.
This method follows the same steps as Method 1 above, but utilises a shorter period of mixing of the test compound (105 minutes instead of 2 hours) with the GSK3-α protein.

[3] = target: c-Src (Homo sapiens (Human), UniProt P12931); assay: c-Src enzyme inhibition (FRET, Z-LYTE); format: biochemical
c-Src, sequence (P12931 whole entry, looked up): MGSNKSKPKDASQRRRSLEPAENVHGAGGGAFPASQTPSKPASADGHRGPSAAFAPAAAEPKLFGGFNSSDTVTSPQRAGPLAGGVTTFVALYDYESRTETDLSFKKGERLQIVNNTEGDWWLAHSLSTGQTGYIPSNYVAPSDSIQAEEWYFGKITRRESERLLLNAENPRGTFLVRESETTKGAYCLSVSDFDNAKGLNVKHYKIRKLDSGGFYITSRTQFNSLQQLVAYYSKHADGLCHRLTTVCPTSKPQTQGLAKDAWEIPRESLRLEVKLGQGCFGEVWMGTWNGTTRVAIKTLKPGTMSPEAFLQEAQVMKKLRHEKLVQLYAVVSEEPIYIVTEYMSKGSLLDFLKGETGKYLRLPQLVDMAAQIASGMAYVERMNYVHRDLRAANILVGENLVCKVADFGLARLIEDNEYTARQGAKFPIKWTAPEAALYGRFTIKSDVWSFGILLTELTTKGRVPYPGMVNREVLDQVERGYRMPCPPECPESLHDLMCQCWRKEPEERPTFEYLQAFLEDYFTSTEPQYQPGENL
Experimental: as §1
(§3) The inhibitory activities of compounds of the invention against c-Src and Syk enzymes (Invitrogen), are evaluated in a similar fashion to that described hereinabove. The relevant enzyme (3000 ng/mL or 2000 ng/mL respectively, 2.5 μL) is incubated with the test compound (either 4 μg/mL, 0.4 μg/mL, 0.04 μg/mL, or 0.004 μg/mL, 2.5 μL each) for 2 hr at RT. The FRET peptides (8 μM. 2.5 μL), and appropriate ATP solutions (2.5 μL, 800 μM for c-Src, and 60 μM ATP for Syk) are then added to the enzymes/compound mixtures and incubated for 1 hr. Development reagent (protease, 5 μL) is added for 1 hr prior to detection in a fluorescence microplate reader (Varioskan® Flash, ThermoFisher Scientific).
as §2

[4] = target: Syk (Homo sapiens (Human), UniProt P43405); assay: Syk enzyme inhibition (FRET, Z-LYTE); format: biochemical
Experimental: as §1, §3, §2

[5] = target: p38 MAPKα (Homo sapiens (Human), UniProt Q16539); assay: p38 MAPKα enzyme inhibition (FRET, Z-LYTE; Method 2); format: biochemical
p38 MAPKα, sequence (Q16539 whole entry): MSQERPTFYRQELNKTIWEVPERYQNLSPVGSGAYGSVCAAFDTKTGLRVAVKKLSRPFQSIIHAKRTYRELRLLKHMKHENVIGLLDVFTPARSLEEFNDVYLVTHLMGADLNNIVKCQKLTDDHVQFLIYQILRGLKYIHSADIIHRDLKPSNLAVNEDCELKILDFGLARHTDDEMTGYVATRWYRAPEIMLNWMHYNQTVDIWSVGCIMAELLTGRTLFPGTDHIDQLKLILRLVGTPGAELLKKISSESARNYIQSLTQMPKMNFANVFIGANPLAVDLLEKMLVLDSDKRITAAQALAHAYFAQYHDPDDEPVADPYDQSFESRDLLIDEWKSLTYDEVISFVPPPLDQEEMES
Experimental: as §1
The inhibitory activities of test compounds against the p38 MAPKα isoform (MAPK14: Invitrogen), are evaluated indirectly by determining the level of activation/phosphorylation of the down-stream molecule, MAPKAP-K2. The p38 MAPKα protein (80 ng/mL, 2.5 μL) is mixed with the test compound (2.5 μL of either 4 μg/mL, 0.4 μg/mL, 0.04 μg/mL or 0.004 μg/mL) for 2 hr at RT. […] The mixture is incubated for 1 hr at RT. Development reagent (protease, 5 μL) is added for 1 hr prior to detection in a fluorescence microplate reader (Varioskan® Flash, ThermoFisher Scientific).
Method 2 This method follows the same steps as Method 1 above, but utilises a higher concentration of the p38 MAPKα protein (2.5 μL of 200 ng/mL protein instead of 2.5 μL of 80 ng/mL protein) for mixing with the test compound.
as §2

Structure (SMILES) | IC50 [1] [nM] | IC50 [2] [nM] | IC50 [3] [nM] | IC50 [4] [nM] | IC50 [5] [nM]
Cc1cc(Nc2nccc(Oc3ccc(NC(=O)Nc4cc(C(C)(C)C)nn4-c4ccc(P(C)(C)=O)cc4)c4ccccc34)n2)cc2cn[nH]c12 [Example 21, 1-(3-(tert-Butyl)-1-(4-(dimethylphosphoryl)phenyl)-1H-pyrazol-5-yl)-3-(4-((2-((7-methyl-1H-indazol-5-yl)amino)pyrimidin-4-yl)oxy)naphthalen-1-yl)urea] | 3.4 | 761 | 1 | 2 | 44
CCP(=O)(CC)c1ccc(-n2nc(C(C)(C)C)cc2NC(=O)Nc2ccc(Oc3ccnc(Nc4ccccc4)n3)c3ccccc23)cc1 [Example 22, 1-(3-(tert-Butyl)-1-(4-(diethylphosphoryl)phenyl)-1H-pyrazol-5-yl)-3-(4-((2-(phenylamino)-pyrimidin-4-yl)oxy)naphthalen-1-yl)urea] | 32.8 | 818 | 9 | 200 | 67
CC(C)(C)c1cc(NC(=O)Nc2ccc(Oc3ccnc(Nc4ccc(S(F)(F)(F)(F)F)cc4)n3)c3ccccc23)n(-c2ccc(P(C)(C)=O)cc2)n1 [Example 28, 1-(3-(tert-Butyl)-1-(4-(dimethylphosphoryl)phenyl)-1H-pyrazol-5-yl)-3-(4-((2-((4-(Pentafluorothio)phenyl)amino)pyrimidin-4-yl)oxy)naphthalen-1-yl)urea] | 214 | > 10000 | 372 | 884 | > 1000
CC(C)(C)c1cc(NC(=O)Nc2ccc(Oc3ccnc(Sc4ccccc4)n3)c3ccccc23)n(-c2ccc(P(C)(C)=O)cc2)n1 [Example 29, 1-(3-(tert-Butyl)-1-(4-(dimethylphosphoryl)phenyl)-1H-pyrazol-5-yl)-3-(4-((2-(phenylthio)-pyrimidin-4-yl)oxy)naphthalen-1-yl)urea] | 150 | > 10000 | > 1000 | > 1000 | 149
CN(CCCO)c1nccc(Oc2ccc(NC(=O)Nc3cc(C(C)(C)C)nn3-c3ccc(P(C)(C)=O)cc3)c3ccccc23)n1 [Example 30, 1-(3-(tert-Butyl)-1-(4-(dimethylphosphoryl)phenyl)-1H-pyrazol-5-yl)-3-(4-((2-((3-hydroxy-propyl)(methyl)amino)pyrimidin-4-yl)oxy)naphthalen-1-yl)urea] | 280 | > 10000 | 795 | > 1000 | 27
CC(C)(C)c1cc(NC(=O)Nc2ccc(Oc3ccnc(Nc4ccc5c(c4)NC(=O)C5)n3)c3ccccc23)n(-c2cccc(CP(C)(C)=O)c2)n1 [Example 33, 1-(3-(tert-Butyl)-1-(3-((dimethylphosphoryl)methyl)phenyl)-1H-pyrazol-5-yl)-3-(4-((2-((2-oxoindolin-6-yl)amino)pyrimidin-4-yl)oxy)naphthalen-1-yl)urea] | 2.4 | 326 |  |  | 
CC(C)(C)c1cc(NC(=O)Nc2ccc(Oc3ccnc(Nc4cccc(OCCN5CCOCC5)c4)n3)c3ccccc23)n(-c2cccc(CP(C)(C)=O)c2)n1 [Example 34, 1-(3-(tert-Butyl)-1-(3-((dimethylphosphoryl)methyl)phenyl)-1H-pyrazol-5-yl)-3-(4-((2-((3-(2-morpholinoethoxy)phenyl)amino)pyrimidin-4-yl)oxy)naphthalen-1-yl)urea] | 1.1 | 324 |  |  | 
COc1ccccc1Nc1nccc(Oc2ccc(NC(=O)Nc3cc(C(C)C)nn3-c3cccc(CP(C)(C)=O)c3)c3ccccc23)n1 [Example 40, 1-(1-(3-((dimethylphosphoryl)methyl)phenyl)-3-isopropyl-1H-pyrazol-5-yl)-3-(4-((2-((2-methoxyphenyl)amino)pyrimidin-4-yl)oxy)naphthalen-1-yl)urea] | 104 | 8920 |  |  | 
C#Cc1cc(Nc2nccc(Oc3ccc(NC(=O)Nc4cc(C(C)C)nn4-c4cccc(CP(C)(C)=O)c4)c4ccccc34)n2)cc(C(=O)NCCN2CCOCC2)c1 [Example 43, 3-((4-((4-(3-(1-(3-((Dimethylphosphoryl)methyl)phenyl)-3-isopropyl-1H-pyrazol-5-yl)ureido)naphthalen-1-yl)oxy)pyrimidin-2-yl)amino)-5-ethynyl-N-(2-morpholinoethyl)benzamide] | 1.6 | 174 |  |  | 
COc1cc(Nc2nccc(Oc3ccc(NC(=O)Nc4cc(C(C)C)nn4-c4cccc(CP(C)(C)=O)c4)c4ccccc34)n2)cc(S(=O)(=O)C2CC2)c1 [Example 46, 1-(4-((2-((3-(Cyclopropylsulfonyl)-5-methoxyphenyl)amino)pyrimidin-4-yl)oxy)naphthalen-1-yl)-3-(1-(3-((dimethylphosphoryl)methyl)phenyl)-3-isopropyl-1H-pyrazol-5-yl)urea] | 5.9 | 1600 |  |  | 
COc1cc(Nc2nccc(Oc3ccc(NC(=O)Nc4cc(C(C)(C)C)nn4-c4cccc(CP(C)(C)=O)c4)c4ccccc34)n2)cc(C(=O)NCCN2CCOCC2)c1 [Example 47, 3-((4-((4-(3-(3-(tert-Butyl)-1-(3-((dimethylphosphoryl)methyl)phenyl)-1H-pyrazol-5-yl)ureido)naphthalen-1-yl)oxy)pyrimidin-2-yl)amino)-5-methoxy-N-(2-morpholinoethyl)-benzamide] | 0.8 | 406 |  |  | 
CC(C)c1cc(NC(=O)Nc2ccc(Oc3ccnc(Nc4cc(OCCN5CCOCC5)cc(S(C)(=O)=O)c4)n3)c3ccccc23)n(-c2cccc(CP(C)(C)=O)c2)n1 [Example 53, 1-(1-(3-((Dimethylphosphoryl)methyl)phenyl)-3-isopropyl-1H-pyrazol-5-yl)-3-(4-((2-((3-(methylsulfonyl)-5-(2-morpholinoethoxy)phenyl)amino)pyrimidin-4-yl)oxy)naphthalen-1-yl)urea] | 2 | 188 |  |  | 
COc1cc(Nc2nccc(Oc3ccc(NC(=O)Nc4cc(C(C)C)nn4-c4cccc(CP(C)(C)=O)c4)c4ncccc34)n2)cc(OCCN2CCOCC2)c1 [Example 54, 1-(1-(3-((Dimethylphosphoryl)methyl)phenyl)-3-isopropyl-1H-pyrazol-5-yl)-3-(5-((2-((3-methoxy-5-(2-morpholinoethoxy)phenyl)amino)pyrimidin-4-yl)oxy)quinolin-8-yl)urea] | 27.4 | > 10000 |  |  | 
COCCOCCOCCOCCOCCOc1cc(Nc2nccc(Oc3ccc(NC(=O)Nc4cc(C(C)C)nn4-c4cccc(CP(C)(C)=O)c4)c4ccccc34)n2)cc(OC)c1 [Example 55, 1-(4-((2-((3-(2,5,8,11,14-Pentaoxahexadecan-16-yloxy)-5-methoxyphenyl)amino)-pyrimidin-4-yl)oxy)naphthalen-1-yl)-3-(1-(3-((dimethylphosphoryl)methyl)phenyl)-3-isopropyl-1H-pyrazol-5-yl)urea] | 5.4 | 1670 |  |  | 
C#Cc1cc(Nc2nccc(Oc3ccc(NC(=O)Nc4cc(C(C)C)nn4-c4cccc(CP(C)(C)=O)c4)c4ccccc34)n2)cc(OCCN2CCOCC2)c1 [Example 56, 1-(1-(3-((Dimethylphosphoryl)methyl)phenyl)-3-isopropyl-1H-pyrazol-5-yl)-3-(4-((2-((3-ethynyl-5-(2-morpholinoethoxy)phenyl)amino)pyrimidin-4-yl)oxy)naphthalen-1-yl)urea] | 1.7 | 788 |  |  | 
